In PubChem BioAssay AID2060488 (Molecular Pharmacology Branch, DTP, NCI, 2025):
pIC50: −log10 of the molar value.

System: 966289-007-R4-J1-PDC complex spheroid viability
Assay: Anticancer human tumor 966289-007-R4-J1-PDC patient-derived pancreatic adenocarcinoma cell line growth inhibition [GQUAD]
Details: for pIC50: curve of first compound; for viability, T/C: stronger effect = lower value
Excerpt: DNA G-quadruplex Stabilizer Agents in Combinations in Complex Spheroids
A high-throughput screen of multi-cell type tumor spheroids was designed to identify active combinations of DNA G-quadruplex stabilizer agents and targeted small molecules. Complex spheroids include a stromal component modeled by human endothelial cells (HUVEC) and fibroblasts modeled by human mesenchymal stem cells (MSCs). The concentration ranges selected for each drug and investigational agent were based upon clinically achievable concentrations if the clinical Cmax of the agent was known.
Compounds. The drugs and investigational agents: pidnarulex (CX-5461; NSC782164), APTO-253 (NSC789042), BRACO-19 (NSC847499), peposertib (NSC802822), ceralasertib (NSC780249), elimusertib (NSC800525), camonsertib (NSC841442), AZD-1390 (NSC803789), olaparib (NSC753686), talazoparib (NSC767125), ART-558 (NSC835418), sotorasib (NSC818433), MRTX-1133 (NSC836407), SN-38 (NSC673596), topotecan (NSC609699), etoposide (NSC141540), doxorubicin (NSC123127), gemcitabine (NSC613327), 5-fluorouracil (NSC19893), paclitaxel (NSC125973), vemurafenib (NSC761431), panobinostat (NSC761190), R-306465 (JNJ-16241199; NSC773264), adavosertib (NSC754352), TP-3654 (NSC805149), carboplatin (NSC241240), KSQ-4279 (NSC840948), and staurosporine (NSC755774) were obtained from the National Cancer Institute (NCI) Developmental Therapeutics Program Chemical Repository (34). The FDA-approved anticancer drug set is available from the NCI Developmental Therapeutics Program. […] The stock solutions were prepared in dimethyl sulfoxide (DMSO, Sigma-Aldrich, St. Louis, MO, cat. D2650) at 800-fold the tested concentration and stored at -70 degrees C prior to their use. All drugs and investigational agents were tested over a range starting from a high concentration at or near the clinical Cmax and decreasing in half-log increments. If the clinical Cmax for an agent had not been determined, the highest concentration tested was 10 microM.
2.3 Cell Culture. All cells were maintained in an incubator at 37 degrees C and 5% CO2 with 95% humidity. The PDC lines were cultured according to standard operating procedures established by the NCI PDMR. All PDCs were thawed and cultured in Matrigel-coated flasks prepared with a working solution of 1X Ham's F-12 nutrient mix, without supplementation (Invitrogen, cat. 11765054), 100 U/mL penicillin-streptomycin (Invitrogen, cat. 15140122), and 2.5% Matrigel (Corning Inc., cat. 354248) for the first three passages. The 857933-349-R-J2-PDC line was cultured in 6C/Colon 1B media, which includes advanced DMEM/F-12 (Thermo Fisher Scientific, cat. 12634028), 10 mM HEPES (Thermo Fisher Scientific, cat. 15630080), 1X GlutaMAX supplement (Thermo Fisher Scientific, cat. 35050061), 0.1 mg/mL primocin (InvivoGen, cat. ant-pm-2), 10% defined fetal bovine serum, heat inactivated (HyClone Laboratories Inc., cat. SH30070.03HI), 50% L-WRN conditioned media (ATCC, cat. CRL-3276), 1.25 mM N-Acetyl-L-cysteine (Sigma-Aldrich, cat. A9165), 10 mM nicotinamide (Sigma-Aldrich, cat. N0636), 1X B-27 supplement (Thermo Fisher Scientific, cat. 17504044), 1X N-2 supplement (Thermo Fisher Scientific, cat. 17502048), 10 microM Y-27632 dihydrochloride (Tocris Bioscience, cat. 1254), and 50 ng/mL human EGF recombinant protein (Thermo Fisher Scientific, cat. PHG0311). The 485176-168-R4-J1-PDC line was cultured in Panc media, which includes all 6C/Colon 1B media components plus 100 ng/mL human FGF-10 (Thermo Fisher Scientific, cat. 100-26), 500 nM SB-431542 (Selleckchem, cat. S1067), and gastrin (Tocris, cat. 3006).
[…]
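Further: spheroids exposed to the agents for seven days before readout.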
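Wherever viability, T/C is given: percent viability relative to DMSO vehicle control wells taken as 100%.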

C=CCn1c(=O)c2cnc(Nc3ccc(N4CCN(C)CC4)cc3)nc2n1-c1cccc(C(C)(C)O)n1 + Cc1[nH]c2ccc(F)cc2c1-c1nc2c3cccnc3c3ncccc3c2[nH]1
pIC50 (second compound 0.0316 µM): 5.74
pIC50 (second compound 0.1 µM): 5.74
pIC50 (second compound 0.316 µM): 5.74
pIC50 (second compound 1 µM): 5.73
pIC50 (second compound 3.16 µM): 5.75
pIC50 (second compound 10 µM): 5.75
viability, T/C (second compound 0.0316 µM, first compound 0.0316 µM): 101%
viability, T/C (second compound 0.0316 µM, first compound 0.1 µM): 96.7%
viability, T/C (second compound 0.0316 µM, first compound 0.316 µM): 112%
viability, T/C (second compound 0.0316 µM, first compound 1 µM): 99.7%
viability, T/C (second compound 0.0316 µM, first compound 3.16 µM): 4.85%
viability, T/C (second compound 0.0316 µM, first compound 10 µM): 1.9%
viability, T/C (second compound 0.1 µM, first compound 0.0316 µM): 99.5%
viability, T/C (second compound 0.1 µM, first compound 0.1 µM): 98.9%
viability, T/C (second compound 0.1 µM, first compound 0.316 µM): 110%
viability, T/C (second compound 0.1 µM, first compound 1 µM): 99.9%
viability, T/C (second compound 0.1 µM, first compound 3.16 µM): 4.92%
viability, T/C (second compound 0.1 µM, first compound 10 µM): 2.17%
viability, T/C (second compound 0.316 µM, first compound 0.0316 µM): 97.5%
viability, T/C (second compound 0.316 µM, first compound 0.1 µM): 103%
viability, T/C (second compound 0.316 µM, first compound 0.316 µM): 111%
viability, T/C (second compound 0.316 µM, first compound 1 µM): 98%
viability, T/C (second compound 0.316 µM, first compound 3.16 µM): 7.35%
viability, T/C (second compound 0.316 µM, first compound 10 µM): 1.74%
viability, T/C (second compound 1 µM, first compound 0.0316 µM): 95.7%
viability, T/C (second compound 1 µM, first compound 0.1 µM): 98.3%
viability, T/C (second compound 1 µM, first compound 0.316 µM): 111%
viability, T/C (second compound 1 µM, first compound 1 µM): 100%
viability, T/C (second compound 1 µM, first compound 3.16 µM): 6.22%
viability, T/C (second compound 1 µM, first compound 10 µM): 2%
viability, T/C (second compound 3.16 µM, first compound 0.0316 µM): 102%
viability, T/C (second compound 3.16 µM, first compound 0.1 µM): 109%
viability, T/C (second compound 3.16 µM, first compound 0.316 µM): 109%
viability, T/C (second compound 3.16 µM, first compound 1 µM): 92.9%
viability, T/C (second compound 3.16 µM, first compound 3.16 µM): 5.37%
viability, T/C (second compound 3.16 µM, first compound 10 µM): 2.62%
viability, T/C (second compound 10 µM, first compound 0.0316 µM): 106%
viability, T/C (second compound 10 µM, first compound 0.1 µM): 107%
viability, T/C (second compound 10 µM, first compound 0.316 µM): 109%
viability, T/C (second compound 10 µM, first compound 1 µM): 93.5%
viability, T/C (second compound 10 µM, first compound 3.16 µM): 4.68%
viability, T/C (second compound 10 µM, first compound 10 µM): 2.33%
